Reference: ChEMBL document CHEMBL5523679, “Discovery of 1,2,3-triazole incorporated indole-piperazines as potent antitubercular agents: Design, synthesis, in vitro biological evaluation, molecular docking and ADME studies” (Bioorg Med Chem, 2024)
Values after ≈ are worked out from the molar mass of the structure shown.

How the values were obtained:
Staphylococcus aureus [1] = assay: Antibacterial activity against Staphylococcus aureus assessed as inhibition zone at 25 ug/ml by diffusion method; type: functional; settings: read-out: IZ
Escherichia coli [2] = assay: Antibacterial activity against Escherichia coli assessed as inhibition zone at 50 ug/ml by diffusion method; type: functional; settings: read-out: IZ
Pseudomonas aeruginosa [3] = assay: Antibacterial activity against Pseudomonas aeruginosa assessed as inhibition zone at 75 ug/ml by diffusion method; type: functional; settings: read-out: IZ
Staphylococcus aureus [4] = assay: Antibacterial activity against Staphylococcus aureus assessed as inhibition zone at 75 ug/ml by diffusion method; type: functional; settings: read-out: IZ
Escherichia coli [5] = assay: Antibacterial activity against Escherichia coli assessed as inhibition zone at 75 ug/ml by diffusion method; type: functional; settings: read-out: IZ
Escherichia coli [6] = assay: Antibacterial activity against Escherichia coli assessed as inhibition zone at 25 ug/ml by diffusion method; type: functional; settings: read-out: IZ
Pseudomonas aeruginosa [7] = assay: Antibacterial activity against Pseudomonas aeruginosa assessed as inhibition zone at 50 ug/ml by diffusion method; type: functional; settings: read-out: IZ
Pseudomonas aeruginosa [8] = assay: Antibacterial activity against Pseudomonas aeruginosa assessed as inhibition zone at 25 ug/ml by diffusion method; type: functional; settings: read-out: IZ
[9] = test system: Mycobacterium tuberculosis; assay: Antimycobacterial activity against Mycobacterium tuberculosis H37Rv assessed as bacterial growth inhibition by microplate Alamar blue assay; type: functional
Staphylococcus aureus [10] = assay: Antibacterial activity against Staphylococcus aureus assessed as inhibition zone at 50 ug/ml by diffusion method; type: functional; settings: read-out: IZ
[11] = Cytotoxicity against African green monkey Vero cells measured after 72 hrs by MTT assay; type: toxicity, cell-based; settings: chlorocebus sabaeus
[12] = Cytotoxicity against African green monkey Vero cells assessed as inhibition of cell growth at 6.25 ug/ml measured after 72 hrs by MTT assay relative to control; type: toxicity, cell-based; settings: chlorocebus sabaeus, at 6.25 µg/mL
[13] = Selectivity index, ratio of CC50 for African green monkey Vero cells to MIC for Mycobacterium tuberculosis H37Rv; type: toxicity; settings: read-out: Selectivity Index

| SMILES | zone of inhibition at 25 µg/mL (Staphylococcus aureus [1]) [mm] | zone of inhibition at 50 µg/mL (Escherichia coli [2]) [mm] | zone of inhibition at 75 µg/mL (Pseudomonas aeruginosa [3]) [mm] | zone of inhibition at 75 µg/mL (Staphylococcus aureus [4]) [mm] | zone of inhibition at 75 µg/mL (Escherichia coli [5]) [mm] | zone of inhibition at 25 µg/mL (Escherichia coli [6]) [mm] | zone of inhibition at 50 µg/mL (Pseudomonas aeruginosa [7]) [mm] | zone of inhibition at 25 µg/mL (Pseudomonas aeruginosa [8]) [mm] | MIC [9] [µM] | zone of inhibition at 50 µg/mL (Staphylococcus aureus [10]) [mm] | CC50 at 72 h [11] [µg/mL] | inhibition at 72 h, 6.25 ug/ml [12] [%] | selectivity ratio [13] |
| --- | --- | --- | --- | --- | --- | --- | --- | --- | --- | --- | --- | --- | --- |
| Cc1ccc(S(=O)(=O)N2CCN(C(=O)Cc3c[nH]c4ccccc34)CC2)cc1 | 10 | 15 | 15 | 15 | 18 | 12 | 13 | 10 | > 120 | 12 |  |  |  |
| Cc1ccc(C(=O)N2CCN(C(=O)Cc3cn(Cc4ccc(F)cc4)c4ccccc34)CC2)cc1 | 10 | 13 | 18 | 20 | 15 |  | 15 | 10 | 26.6 | 15 |  |  |  |
| Cc1ccc(C(=O)N2CCN(C(=O)CCc3cn(Cc4cn(Cc5ccc(F)cc5)nn4)c4ccccc34)CC2)cc1 | 13 | 20 | 13 | 20 | 25 | 15 | 10 |  | 5.5 | 13 | 1320 (≈ 2340 µM) | 9.4 | 424 |
| O=C(CCc1cn(Cc2ccc(F)cc2)c2ccccc12)N1CCN(S(=O)(=O)c2ccccc2)CC1 | 15 | 12 | 18 | 20 | 14 |  | 15 | 10 | 49.4 | 18 |  |  |  |
| O=C(CCc1cn(Cc2cn(Cc3ccc(F)cc3)nn2)c2ccccc12)N1CCN(S(=O)(=O)c2ccc(Cl)cc2)CC1 | 10 | 20 | 18 | 20 | 24 | 15 | 15 | 10 | 20.1 | 13 |  |  |  |
| O=C(CCc1cn(Cc2cn(Cc3ccc(F)cc3)nn2)c2ccccc12)N1CCN(C(=O)c2ccc(F)cc2)CC1 | 13 | 20 | 13 | 20 | 23 | 15 |  |  | 2.8 | 15 | 1200 (≈ 2110 µM) | 11.7 | 750 |
| O=C(CCc1c[nH]c2ccccc12)N1CCN(S(=O)(=O)c2ccc(F)cc2)CC1 | 13 | 15 | 18 | 20 | 17 | 13 | 15 | 13 | > 120 | 15 |  |  |  |
| Cc1ccc(S(=O)(=O)N2CCN(C(=O)CCc3c[nH]c4ccccc34)CC2)cc1 | 10 | 15 | 18 | 15 | 18 | 13 | 15 | 10 | > 120 | 13 |  |  |  |
| O=C(Cc1c[nH]c2ccccc12)N1CCN(S(=O)(=O)c2ccc(Cl)cc2)CC1 | 10 | 9 | 13 | 15 | 11 | 6 | 10 |  | 59.8 | 12 |  |  |  |
| Cc1ccc(C(=O)N2CCN(C(=O)CCc3cn(Cc4ccc(F)cc4)c4ccccc34)CC2)cc1 | 13 | 15 | 18 | 20 | 17 |  | 15 | 10 | 51.7 | 18 |  |  |  |
| O=C(CCc1cn(Cc2cn(Cc3ccc(F)cc3)nn2)c2ccccc12)N1CCN(S(=O)(=O)c2ccccc2C(F)(F)F)CC1 | 10 | 22 | 12 | 20 | 20 | 15 | 10 |  | 38.2 | 12 |  |  |  |
